Legend:
[1] = Liquid, Pulse-echo method
[2] = xn = mol fraction of the nth substance listed; settings: Liquid, Pulse-echo method, x1 = 1

CCCO [propan-1-ol]
[1]
Settings	speed of sound [m/s]
293.12 K, 15200 kPa	1308.5
293.16 K, 121580 kPa	1699.1
293.17 K, 111450 kPa	1669.9
293.18 K, 101320 kPa	1639.5
293.19 K, 100 kPa	1223
293.2 K, 75990 kPa	1557.2
293.2 K, 91190 kPa	1607.6
293.21 K, 45590 kPa	1444.2
293.21 K, 60790 kPa	1502.8
293.22 K, 30400 kPa	1379.9
298.11 K, 15200 kPa	1292.9
298.12 K, 100 kPa	1205.9
298.14 K, 45590 kPa	1430.7
298.14 K, 60790 kPa	1490
298.14 K, 75990 kPa	1544.9
298.14 K, 91190 kPa	1595.8
298.14 K, 101320 kPa	1628
298.14 K, 111450 kPa	1658.8
298.14 K, 121580 kPa	1688.2
298.15 K, 30400 kPa	1365.6
303.12 K, 100 kPa	1188.7
303.13 K, 45590 kPa	1417
303.14 K, 15200 kPa	1277.3
303.15 K, 75990 kPa	1532.5
303.17 K, 91190 kPa	1584
303.17 K, 101320 kPa	1616.5
303.18 K, 121580 kPa	1677.4
303.19 K, 111450 kPa	1647.5
303.2 K, 60790 kPa	1477
303.24 K, 30400 kPa	1350.9
308.11 K, 121580 kPa	1667
308.12 K, 75990 kPa	1520.4
308.13 K, 30400 kPa	1336.8
308.13 K, 45590 kPa	1403.7
308.13 K, 60790 kPa	1464.5
308.16 K, 111450 kPa	1636.7
308.19 K, 101320 kPa	1605.1
308.2 K, 100 kPa	1171.4
308.2 K, 15200 kPa	1263.6
308.2 K, 91190 kPa	1572.4
313.15 K, 91190 kPa	1561.1
313.15 K, 101320 kPa	1594.1
313.16 K, 15200 kPa	1248.7
313.16 K, 30400 kPa	1322.6
313.16 K, 45590 kPa	1390.4
313.16 K, 75990 kPa	1508.5
313.17 K, 100 kPa	1154.5
313.17 K, 60790 kPa	1451.8
313.17 K, 121580 kPa	1656.2
313.22 K, 111450 kPa	1625.8
318.11 K, 101320 kPa	1583.3
318.12 K, 60790 kPa	1439.6
318.12 K, 75990 kPa	1496.8
318.12 K, 91190 kPa	1549.9
318.14 K, 45590 kPa	1377.4
318.16 K, 30400 kPa	1308.7
318.17 K, 111450 kPa	1615.3
318.17 K, 121580 kPa	1646
318.2 K, 100 kPa	1137.5

CCCO [propan-1-ol] + CCCCCCC
[2]
Settings	speed of sound [m/s]
293.12 K, 15200 kPa	1308.5
293.16 K, 121580 kPa	1699.1
293.17 K, 111450 kPa	1669.9
293.18 K, 101320 kPa	1639.5
293.19 K, 100 kPa	1223
293.2 K, 75990 kPa	1557.2
293.2 K, 91190 kPa	1607.6
293.21 K, 45590 kPa	1444.2
293.21 K, 60790 kPa	1502.8
293.22 K, 30400 kPa	1379.9
298.11 K, 15200 kPa	1292.9
298.12 K, 100 kPa	1205.9
298.14 K, 45590 kPa	1430.7
298.14 K, 60790 kPa	1490
298.14 K, 75990 kPa	1544.9
298.14 K, 91190 kPa	1595.8
298.14 K, 101320 kPa	1628
298.14 K, 111450 kPa	1658.8
298.14 K, 121580 kPa	1688.2
298.15 K, 30400 kPa	1365.6
303.12 K, 100 kPa	1188.7
303.13 K, 45590 kPa	1417
303.14 K, 15200 kPa	1277.3
303.15 K, 75990 kPa	1532.5
303.17 K, 91190 kPa	1584
303.17 K, 101320 kPa	1616.5
303.18 K, 121580 kPa	1677.4
303.19 K, 111450 kPa	1647.5
303.2 K, 60790 kPa	1477
303.24 K, 30400 kPa	1350.9
308.11 K, 121580 kPa	1667
308.12 K, 75990 kPa	1520.4
308.13 K, 30400 kPa	1336.8
308.13 K, 45590 kPa	1403.7
308.13 K, 60790 kPa	1464.5
308.16 K, 111450 kPa	1636.7
308.19 K, 101320 kPa	1605.1
308.2 K, 100 kPa	1171.4
308.2 K, 15200 kPa	1263.6
308.2 K, 91190 kPa	1572.4
313.15 K, 91190 kPa	1561.1
313.15 K, 101320 kPa	1594.1
313.16 K, 15200 kPa	1248.7
313.16 K, 30400 kPa	1322.6
313.16 K, 45590 kPa	1390.4
313.16 K, 75990 kPa	1508.5
313.17 K, 100 kPa	1154.5
313.17 K, 60790 kPa	1451.8
313.17 K, 121580 kPa	1656.2
313.22 K, 111450 kPa	1625.8
318.11 K, 101320 kPa	1583.3
318.12 K, 60790 kPa	1439.6
318.12 K, 75990 kPa	1496.8
318.12 K, 91190 kPa	1549.9
318.14 K, 45590 kPa	1377.4
318.16 K, 30400 kPa	1308.7
318.17 K, 111450 kPa	1615.3
318.17 K, 121580 kPa	1646
318.2 K, 100 kPa	1137.5
